Test system: increase in intravesical pressure induced by carbachol in anesthetized dog
Assay: Effect on the increase in intravesical pressure induced by carbachol in anesthetized dog
Assay type: in vivo
Conditions: 0.032 mg/kg, administered intradermally 30 minutes before carbachol (1.8 μg/kg); female Beagle dogs under halothane anesthesia
Method: Effect on the increase in intravesical pressure induced by carbachol in anesthetized dog
Female Beagle dogs weighing 8.0-15.0 kg were fasted for 24 hours and maintained under halothane anesthesia. A 12F Foley catheter was lubricated with water soluble jelly, inserted into the urethral orifice, and advanced approximately 10 cm until the balloon tip was placed well inside the bladder. The balloon was then inflated with 5 ml of room air and catheter slowly withdrawn just part the first resistance that was felt at the bladder neck. Urine was completely drained out through the catheter, and 30 ml of biological saline was infused. The catheter was connected to pressure transducer, and intravesical pressure (IVP) was continuously recorded. The test compound was administered intradermally at 30 minutes before the administration of carbachol (1.8 μg/kg). Percent inhibition of IVP increase by test compound was calculated by dividing IVPa (IVP increase induced by carbachol after test compound administration) by IVPb (IVP increase induced by carbachol just before test compound administration).

SMILES: Cl.O=C(NS(=O)(=O)CCO)c1ccc(-c2ccc(CCNC[C@H](O)c3ccccc3)cc2)cc1OC1CCCCC1 [Test Compound (1), 3-(Cyclohexyloxy)-N-[(2-hydroxyethyl)sulfonyl]-4′-[2-[[(2R)-2-hydroxy-2-phenylethyl]amino]ethyl]-4-biphenylcarboxamide hydrochloride]
- Percent inhibition of IVP increase: 78%
